Reference: US20230048576A1, “COMPOUNDS FOR THE TREATMENT OF NEUROPATHIC PAIN” (City of Hope, priority 2019, published 2023)
Several values for one entry are separate records, joined by “and”; a condition that tells them apart may be missing. Equal entries are not always repeated. Marks after values point to notes of the source that are not given here.

Tests used:
[1] = tested on: Taxol-induced neuropathic pain; test: Von Frey test (mechanical allodynia) in Taxol induced model of neuropathic pain; assay type: in vivo, rat; details: Group 2; for mean Von Frey force required for withdrawal: 150 mg/kg IP
Method: (§1) Neuropathic pain was induced by intraperitoneal administration of Taxol at a dose level of 6 mg/kg on study days 0-6 and 12 mg/kg on study days 7-12. Following injection of Taxol animals experienced pain as was assessed using the von Frey test. The development of neuropathic pain was confirmed by measuring mechanical allodynia (Von Frey test) on study day 13 (for inclusion) and on study day 14 (1 hour and 2 hour post dosing) and 24 hour post first dosing.
All data are presented as means±SEM. Each treatment group was compared to the Vehicle group using Two way ANOVA (for VF) followed by Tukey post-test (GraphPad). Vehicle group is compared to naïve group using T-test. A p value<0.05 is considered to represent a significant difference.
The response to tactile allodynia was evaluated using the Von Frey apparatus (Touch Test®). The rat was placed in an enclosure and positioned on a metal mesh surface, but allowed to move freely. A set of dull monofilaments provide an increasing force was applied on the animal plantar surface of the paw. The lowest force requires for animal paw withdrawal was recorded. Low force values recorded in this test indicate a painful state.

[2] = Mean group body weight in Taxol model; assay type: in vivo, rat; details: 150 mg/kg IP, Group 2
Method: as §1

[3] = Survival of animals during the study; assay type: in vivo, rat; details: 150 mg/kg IP, Group 2
Method: as §1

[4] = tested on: CNS activity (motor coordination and balance); test: Rotarod test; assay type: in vivo, rats; details: 150 mg/kg i.p.; 1 and 6 hr post-dosing
Method: The objective of this study was to evaluate the potential CNS effects of LR-90 and gabapentin (the latter a widely used drug for neuropathic pain) in rats. LR-90 in 20% HPβCD formulation was delivered at a dose of 50 or 100 mg/kg by oral gavage and gabapentin (150 mg/kg) was delivered by i.p. injection. The rotarod test was employed to measure the CNS activity (motor coordination and balance) and the performance time was recorded at 0 (baseline), 1, 6 and 24 hr post-dose.

Structure (SMILES): NCC1(CC(=O)O)CCCCC1 [Gabapentin, reference compound]
- mean Von Frey force required for withdrawal ([1]; Baseline): 57.88 g
- mean Von Frey force required for withdrawal ([1]; Day 13 pre dosing): 9.81 g
- mean Von Frey force required for withdrawal ([1]; Day 14 1 hour post dosing): 45.13**** g
- mean Von Frey force required for withdrawal ([1]; Day 14 2 hours post dosing): 55.75±2.78 g and 55.75**** g
- mean Von Frey force required for withdrawal ([1]; Day 15 24 hours post dosing): 19.56 g
- effect on neuropathic pain compared to the vehicle group (Von Frey test) ([1]; 150 mg/kg, 1 hour and 2 hour post dosing on study day 14): statistically significantly reduced the neuropathic pain
- Mean group body weight ([2]; Baseline): 223.38 g
- Mean group body weight ([2]; Day 1): 235.25 g
- Mean group body weight (% from baseline) ([2]; Day 1): 105.31%
- Mean group body weight ([2]; Day 3): 237.50 g
- Mean group body weight (% from baseline) ([2]; Day 3): 106.31%
- Mean group body weight ([2]; Day 5): 258.13 g
- Mean group body weight (% from baseline) ([2]; Day 5): 115.54%
- Mean group body weight ([2]; Day 7): 269.25 g
- Mean group body weight (% from baseline) ([2]; Day 7): 120.50%
- Mean group body weight ([2]; Day 9): 278.75 g
- Mean group body weight (% from baseline) ([2]; Day 9): 124.74%
- Mean group body weight ([2]; Day 11): 287.63 g
- Mean group body weight (% from baseline) ([2]; Day 11): 128.71%
- Mean group body weight ([2]; Day 13): 289.50 g
- Mean group body weight (% from baseline) ([2]; Day 13): 129.56%
- Mean group body weight ([2]; Day 16): 281.00 g
- Mean group body weight (% from baseline) ([2]; Day 16): 125.68%
- Mean group body weight ([2]; Day 20): 274.38 g
- Mean group body weight (% from baseline) ([2]; Day 20): 122.79%
- Mean group body weight ([2]; Day 23): 263.38 g
- Mean group body weight (% from baseline) ([2]; Day 23): 117.94%
- Mean group body weight ([2]; Day 26): 247.75 g
- Mean group body weight (% from baseline) ([2]; Day 26): 113.52%
- Survived Animals in % ([3]; Study Day 13): 100%
- Survived Animals in % ([3]; Study Day 14): 100%
- Survived Animals in % ([3]; Study Day 15): 100%
- Survived Animals in % ([3]; Study Day 16): 100%
- Survived Animals in % ([3]; Study Day 17): 100%
- Survived Animals in % ([3]; Study Day 18): 100%
- Survived Animals in % ([3]; Study Day 19): 100%
- Survived Animals in % ([3]; Study Day 20): 100%
- Survived Animals in % ([3]; Study Day 21): 100%
- Survived Animals in % ([3]; Study Day 22): 100%
- Survived Animals in % ([3]; Study Day 23): 100%
- Survived Animals in % ([3]; Study Day 24): 88%
- Survived Animals in % ([3]; Study Day 25): 63%
- Survived Animals in % ([3]; Study Day 28): 50%
- rotarod performance time compared with vehicle control group [4]: significantly decreased
